{
  "source": "patent US20240398771A1",
  "about": "“TREATMENT OF SCLERODERMA AND RAYNAUD'S SYNDROME” (Aisa Pharma, Inc., priority 2023, published 2024)",
  "system": "participants with SSc-RP",
  "test": "SHAQ Visual Analog Scale - Pain",
  "type": "in vivo, human",
  "description": "Results: Patients in the study were administered the Scleroderma Health Assessment Questionnaire (SHAQ) at the time of study entry and during clinic visits following the treatment period. The study is a two-part, parallel arm design, prospective, double-blind, randomized study conducted in Australia (Flinders Medical Center). 27 patients were randomized into the first phase of the study, following which a DSMB meeting was held, which reviewed data on the primary study endpoint and key Raynaud's secondary endpoints. Data on the SHAQ was not available for the DSMB to review. The mITT population, in which any data was available post treatment was 24 patients was the analysis population for this first part of the study. The second part (i.e., part B) of the study will randomize 36 patients in a double blind, randomized, prospective, placebo controlled, crossover study. In the first part (i.e., Part A) of the study for which data is presented, patients were randomized into 6 groups, cilnidipine at two doses (10 and 20 mg) alone and in combination with tadalafil 5 mg, tadalafil 5 mg alone, and placebo. […] The DSMB recommended that the study proceed into its double blind prospective cross overpowered second phase and compare cilnidipine 20 mg alone to placebo. […] Cilnidipine treatment may reduce patient-reported SSc disease disability compared to placebo • b. Cilnidipine treatment may reduce patient-reported SSc disease alternative disability compared to placebo • c. Cilnidipine treatment may reduce patient-reported SSc disease pain* compared to placebo • d. Cilnidipine treatment may reduce patient-reported SSc disease severity compared to placebo • e. Cilnidipine treatment may reduce patient-reported SSc disease skin ulcer severity rating compared to placebo • f Cilnidipine treatment may reduce patient-reported SSc disease breathing difficulty compared to placebo • g. […] SSc disease pain comprises not only pain from Raynaud's but joint pain, headache, odynophagia, back pain, pain from skin ulceration, and neuropathic pain). Table E includes results of the Scleroderma Health Assessment Questionnaire.\nPain on the SHAQ outcome measure on the first line in table F is a composite of all pain experienced in patients with SSc, comprising joint pain, back pain, headache, odynophagia, skin ulcer related discomfort, Raynaud's, and neuropathic pain. Aisa Pharma believes, based on the biologic attributes and actions of cilnidipine that differ from most dihydropyridine calcium channel antagonists that cilnidipine might have direct analgesic effects in certain pain conditions and in fact has been designated to receive evaluation through the NIH-NINDS Preclinical Pain Screening Platform Program to investigate the drug in multiple in vitro and in vivo preclinical models of pain that are validated and predictive of effects in man.",
  "key": {"[1]": {"details": "Tadalafil 5 mg, Modified ITT, Part A"}},
  "data": [
    {"smiles": "COCCOC(=O)C1=C(C)NC(C)=C(C(=O)OC/C=C/c2ccccc2)C1c1cccc([N+](=O)[O-])c1", "note": "(centres unmarked) [Cilnidipine, 1,4-dihydro-2,6-dimethyl,4-(3-nitrophenyl)-3,5-pyridinedicarboxylic acid 2-methoxyethyl (2 E)-3-phenyl-2-propenyl ester]", "values": [
      {"measurement": "VAS- PAIN, Baseline on a 0-10 VAS", "setting": "Cilnidipine 20 mg (n = 3), footnote *", "result": "*Baseline was 2.17 on a 0-10 VAS"},
      {"measurement": "Visual Analog Scale-Pain, Baseline, Median", "setting": "Cilnidipine 20 mg, Modified ITT, Part A", "result": 1.500},
      {"measurement": "patient-reported SSc disease pain compared to placebo", "setting": "Example 4, SHAQ, mITT Part A", "result": "may reduce"}
    ]},
    {"smiles": "CN1CC(=O)N2[C@H](c3ccc4c(c3)OCO4)c3[nH]c4ccccc4c3C[C@@H]2C1=O", "note": "[Tadalafil]", "values": [
      {"measurement": "Visual Analog Scale-Pain, Baseline, Mean", "setting": "[1]", "result": 3.167},
      {"measurement": "Visual Analog Scale-Pain, Baseline, Median", "setting": "[1]", "result": 2.900},
      {"measurement": "Visual Analog Scale-Pain, Change from Baseline, Mean", "setting": "[1]", "result": "−0.300"},
      {"measurement": "Visual Analog Scale-Pain, Change from Baseline, Median", "setting": "[1]", "result": "−0.100"},
      {"measurement": "Visual Analog Scale-Pain, In Clinic Visit (Day 12), Mean", "setting": "[1]", "result": 2.700},
      {"measurement": "Visual Analog Scale-Pain, In Clinic Visit (Day 12), Median", "setting": "[1]", "result": 2.150},
      {"measurement": "Visual Analog Scale-Pain, Percent Change from Baseline, Mean", "setting": "[1]", "result": "−14.24", "unit": "%"},
      {"measurement": "Visual Analog Scale-Pain, Percent Change from Baseline, Median", "setting": "[1]", "result": "−4.55", "unit": "%"}
    ]}
  ]
}
